Holding throughout (format): biochemical, bovine
Test [1] concerns the target T1, multicatalytic proteinase complex (MPC) (Bos taurus, UniProt Q2TBP0+Q32KL2+Q3MHN0).
T1 construct: The MPC was isolated from frozen bovine pituitaries; tissue PelFreeze, Inc. (Rogers, Ark.) (supplier of the tissue; the enzyme was purified in house); host or cells: bovine pituitaries
The experiment in a line: β-casein degradation by the MPC, HPLC. To be noted: 50 μM inhibitor, MPC 5.0 μg. The procedure: (§1) The MPC was isolated from frozen bovine pituitaries, obtained from PelFreeze, Inc. (Rogers, Ark.) essentially as described in Orlowski & Michaud, Biochemistry 28:9270-9277 (1989), incorporated herein by reference.
In vitro protein degrading activity of the MPC, and the effects of the various inhibitors of the present invention on such activity, was determined using β-casein and histone H3 as proteolytic substrates. For determining protein degrading activity in the presence and absence of inhibitors, incubation mixtures contained Tris-HCl buffer (0.05M, pH 8.0), β-casein or histone H3, 20 mM Mg^2+ where indicated, and inhibitor dissolved in dimethylsulfoxide, where indicated. In control samples, the inhibitor was replaced by an equal volume of dimethylsulfoxide alone.
In order to measure proteolysis by the MPC, and its inhibition by the inhibitors of the invention, aliquots of the reaction mixtures were removed after various incubation times and subjected to HPLC on a Deltapak column (C4; 5 μm; 300 A; 3.9×150 mm Waters). Elution of histone H3 was carried out with a linear gradient over 30 min. established between 30 and 50% acetonitrile (v/v) in water containing 0.1% trifluoroacetic acid (v/v) at a flow rate of 1 ml/min. Elution of β-casein was carried with a linear gradient established between 10 and 45% acetonitrile (v/v) in water containing 0.1% trifluoroacetic acid (v/v). The rate of protein degradation was determined by measuring the decrease of the peak height of the protein compared with controls in which the enzyme was omitted. Alternatively degradation of the proteins was determined by integrating the area under the peak of the protein at time zero and determining the decrease of the area after incubation with the enzyme.
FIG. 1 depicts the inhibition of β-casein degradation by Cbz-Gly-Pro-Ala-Leu-CHO. HPLC analyses were carried out on samples that had been incubated in the absence and presence of the inhibitor. Incubation mixtures contained β-casein (200 μg), 20 mM Mg^2+, MPC (30 μg) and various concentrations of, inhibitor, if used, in 2 μl of Me2 SO. […]

In test [2] the target is T2, BrAAP component of the multicatalytic proteinase complex (MPC) (Bos taurus, UniProt Q2TBP0+Q32KL2+Q3MHN0).
T2 construct: The MPC was isolated from frozen bovine pituitaries; tissue PelFreeze, Inc. (Rogers, Ark.) (supplier of the tissue; the enzyme was purified in house); host or cells: bovine pituitaries
Briefly: Activity of the BrAAP component of the MPC, coupled two step reaction with aminopeptidase N; Ki by Dixon plots.
Description: as §1
(§2) Cbz-Gly-Pro-Ala-Leu-Gly-pAB and Cbz-Gly-Pro-Ala-Gly-Gly-pAB, where pAB is p-aminobenzoate, were used as convenient substrates for the determination of the activity of the BrAAP and SNAAP components respectively. The BrAAP component cleaves exclusively the Leu-Gly bond in Cbz-Gly-Pro-Ala-Leu-Gly-pAB, whereas the SNAAP component cleaves the Gly-Gly bond in Cbz-Gly-Pro-Ala-Gly-Gly-pAB.
(§3) A coupled two step reaction in the presence of excess aminopeptidase N (AN) was used for the determination of the BrAAP and SNAAP activities as described previously (Orlowski et al., Biochemistry 32:1563-1572 (1993)). Aminopeptidase N was purified from hog kidneys as described by Pfleiderer, Meth. Enzymol. 19:514-521 (1970) and freed from the contaminating metalloendopeptidase (EC 3.4.24.11) as previously described (Almenoff & Orlowski, Biochemistry 22:590-599 (1983)).
(§4) Inhibition constant (K1) values for the inhibitors of the present invention towards the various proteolytic activities of the MPC were determined by the method of Dixon, Biochem. J. 55:170-171 (1953). Plots of 1/v vs [I] were made at three (3) different synthetic substrate concentrations and six (6) different inhibitor concentrations [I]. Linear regression analysis gave generally correlation coefficients better than 0.99.
(§5) Inhibition was tested with and without preincubation of the MPC with the inhibitors of the invention. No increase in inhibition was observed after preincubation of the enzyme with the inhibitor for up to 30 min, indicating absence of slow binding phenomena and a rapid equilibration between enzyme and inhibitor.
(§6) Table II provides a summary of the Ki measurements for the various peptidyl aldehydes of the invention synthesized in accordance with Examples 2 and 3.

Test [3] deals with T3, SNAAP component of the multicatalytic proteinase complex (MPC) (Bos taurus, UniProt Q2TBP0+Q32KL2+Q3MHN0).
T3 construct: The MPC was isolated from frozen bovine pituitaries; tissue PelFreeze, Inc. (Rogers, Ark.) (supplier of the tissue; the enzyme was purified in house); host or cells: bovine pituitaries
The experiment in a line: Activity of the SNAAP component of the MPC, coupled two step reaction with aminopeptidase N; Ki by Dixon plots. To be noted: substrate Cbz-Gly-Pro-Ala-Gly-Gly-pAB (1 to 4 mill); mean of 3 to 6 experiments ± SEM.
Description: as §1, §2, §3, §4, §5, §6

Read-outs that look alike come from different tables or passages of the source. Peptide text beside a SMILES is read from it. * marks the point of attachment. Cbz = O=C(OCc1ccccc1)*

For `CC(C)C[C@@H](C=O)NC(=O)[C@H](Cc1ccccc1)NC(=O)[C@@H]1CCCN1C(=O)CNC(=O)OCc1ccccc1` [Cbz-Gly-Pro-Phe-Leu-CHO] (Cbz-GPFL-aldehyde), the inhibition (commonly the relative decrease from the control value, in per cent) at 50 µM came to 94% in test [1] (β-casein 160 μg/ml, no Mg2+) and 89% in test [1] (β-casein 1000 μg/ml, 20 mM Mg2+). The Ki – broadly, a measure of affinity in units of concentration, obtained from inhibition or displacement – in test [2] (MPC exposed to DCI (10 μM), average of three determinations, read-out: Ki, BrAAP activity of the DCI-treated enzyme) was found to be 1670 nM; in test [2] (substrate Cbz-Gly-Pro-Ala-Leu-Gly-pAB (1 to 4 mill), mean of 3 to 6 experiments ± SEM, read-out: Ki, BRAAP component), 1500 ± 170 nM; in test [3] it was 2300 ± 240 nM.

(Values after US5580854A, “Substrate-related peptidyl-aldehyde inhibitors of the proteolytic activity of the multicatalytic proteinase complex” (Mount Sinai School of Medicine of The City University of …, priority 1994, dated 1996).)
